Test results taken from patent US7880007B2, “Bicyclic substituted phenyl piperidine modulators of muscarinic receptors” (Vertex Pharmaceuticals Incorporated, priority 2004, dated 2011).

Columns and labels:
Format in all cases: cell-based
[1] = target: T1, M4 muscarinic receptor (Homo sapiens, UniProt P08173); test: Functional mobilization of intracellular calcium (FLIPR), M4-CHO cells; settings: for M4 Activity: M4-CHO cells, calcium mobilization (FLIPR)
T1 construct: expressed in transfected cells; host or cells: CHO (M4-CHO)
T1 sequence (P08173 1-479): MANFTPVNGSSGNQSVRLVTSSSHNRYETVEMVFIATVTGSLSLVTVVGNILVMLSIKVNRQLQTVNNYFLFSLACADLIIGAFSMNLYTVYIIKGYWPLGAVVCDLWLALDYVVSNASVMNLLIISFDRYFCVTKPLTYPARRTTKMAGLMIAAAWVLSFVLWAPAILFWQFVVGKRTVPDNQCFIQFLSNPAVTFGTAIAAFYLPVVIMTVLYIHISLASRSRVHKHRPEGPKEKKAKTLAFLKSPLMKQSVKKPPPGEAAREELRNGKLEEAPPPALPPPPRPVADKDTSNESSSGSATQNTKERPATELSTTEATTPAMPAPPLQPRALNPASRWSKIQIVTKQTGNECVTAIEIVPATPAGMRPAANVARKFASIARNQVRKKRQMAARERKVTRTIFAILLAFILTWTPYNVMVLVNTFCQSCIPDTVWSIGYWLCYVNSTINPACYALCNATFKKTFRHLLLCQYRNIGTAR
Procedure, shortened: (§1)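 FLIPR fluorescence (ex 488, em 540 nm) recorded 60 sec after compound addition to dye-loaded CHO cells. Agonist mode: compound alone. Antagonist mode: 15 min compound pre-incubation, then carbachol at EC80, or co-application. Efficacy expressed as % of maximal carbachol response.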

[2] = target: T2, M2 muscarinic receptor (Homo sapiens, UniProt P08172); test: Functional mobilization of intracellular calcium (FLIPR), M2-CHO cells; settings: for M2 Activity: M2-CHO cells, calcium mobilization (FLIPR)
T2 construct: expressed in transfected cells; host or cells: CHO (M2-CHO)
T2 sequence (P08172 1-466): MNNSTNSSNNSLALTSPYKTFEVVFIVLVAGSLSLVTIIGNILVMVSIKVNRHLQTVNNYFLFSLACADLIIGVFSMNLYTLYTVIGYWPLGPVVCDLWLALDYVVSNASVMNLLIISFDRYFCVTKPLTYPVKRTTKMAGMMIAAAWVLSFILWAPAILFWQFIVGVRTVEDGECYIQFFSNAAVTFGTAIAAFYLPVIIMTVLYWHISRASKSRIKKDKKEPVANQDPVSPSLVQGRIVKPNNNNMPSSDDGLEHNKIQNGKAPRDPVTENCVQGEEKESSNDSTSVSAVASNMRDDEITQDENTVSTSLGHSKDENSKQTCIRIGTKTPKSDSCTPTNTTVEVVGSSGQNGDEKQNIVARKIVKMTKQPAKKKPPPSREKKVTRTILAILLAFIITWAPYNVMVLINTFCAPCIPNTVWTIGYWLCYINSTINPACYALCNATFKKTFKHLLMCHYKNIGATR
Procedure, shortened: as §1

[3] = target: T3, M3 muscarinic receptor (Homo sapiens, UniProt P20309); test: Functional mobilization of intracellular calcium (FLIPR), M3-CHO cells; settings: for M3 Activity: M3-CHO cells, calcium mobilization (FLIPR)
T3 construct: expressed in transfected cells; host or cells: CHO (M3-CHO)
Procedure, shortened: as §1

[4] = target: T4, M1 muscarinic receptor (Homo sapiens, UniProt P11229); test: Functional mobilization of intracellular calcium (FLIPR), M1-CHO cells; settings: for M1 Activity: M1-CHO cells, calcium mobilization (FLIPR)
T4 construct: expressed in transfected cells; host or cells: CHO (M1-CHO)
T4 sequence (P11229 1-460): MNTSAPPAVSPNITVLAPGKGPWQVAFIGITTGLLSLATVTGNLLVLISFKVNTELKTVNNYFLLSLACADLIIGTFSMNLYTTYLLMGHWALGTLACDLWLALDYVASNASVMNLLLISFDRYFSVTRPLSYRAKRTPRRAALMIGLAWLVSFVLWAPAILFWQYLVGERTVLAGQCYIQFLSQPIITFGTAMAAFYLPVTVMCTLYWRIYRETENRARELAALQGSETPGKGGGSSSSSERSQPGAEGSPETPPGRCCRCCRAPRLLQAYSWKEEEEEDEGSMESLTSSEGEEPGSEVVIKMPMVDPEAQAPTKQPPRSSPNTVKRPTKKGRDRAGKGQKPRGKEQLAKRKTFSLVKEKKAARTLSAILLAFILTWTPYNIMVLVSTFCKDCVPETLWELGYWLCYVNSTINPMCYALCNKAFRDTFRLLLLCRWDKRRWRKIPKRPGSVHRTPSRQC
Procedure, shortened: as §1

[5] = 100% efficacy = maximum response obtained with the Carbachol control
[6] = 100% efficacy is the maximum response obtained with the Carbachol control

T3 sequence (P20309 whole entry): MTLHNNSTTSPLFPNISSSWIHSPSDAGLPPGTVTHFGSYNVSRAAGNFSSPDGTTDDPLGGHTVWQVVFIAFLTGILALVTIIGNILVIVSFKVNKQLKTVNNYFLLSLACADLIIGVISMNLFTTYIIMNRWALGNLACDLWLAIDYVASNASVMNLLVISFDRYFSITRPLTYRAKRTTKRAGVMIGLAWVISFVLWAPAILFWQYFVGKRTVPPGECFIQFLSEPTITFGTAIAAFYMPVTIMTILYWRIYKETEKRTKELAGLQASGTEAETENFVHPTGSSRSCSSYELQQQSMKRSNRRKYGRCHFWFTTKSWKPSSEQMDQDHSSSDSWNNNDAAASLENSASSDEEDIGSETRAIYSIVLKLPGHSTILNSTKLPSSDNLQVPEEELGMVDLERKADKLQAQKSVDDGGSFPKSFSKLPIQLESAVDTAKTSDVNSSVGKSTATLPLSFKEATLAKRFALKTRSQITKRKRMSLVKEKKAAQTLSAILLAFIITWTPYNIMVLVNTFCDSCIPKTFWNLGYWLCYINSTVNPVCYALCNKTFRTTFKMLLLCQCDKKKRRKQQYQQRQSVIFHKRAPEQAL

| Emax [1, 5] | Emax [2, 5] | Emax [3, 5] | Emax [4, 5] | SMILES | M4 Activity [1] | M2 Activity [2] | M3 Activity [3] | M1 Activity [4] | Emax [1, 6] | Emax [2, 6] | Emax [3, 6] | Emax [4, 6] |
| --- | --- | --- | --- | --- | --- | --- | --- | --- | --- | --- | --- | --- |
| 25 to 100% | < 25% | < 25% | < 25% | c1ccc(COc2ccccc2C2CCN([C@H]3C[C@H]4CC[C@H]3C4)CC2)cc1 [Compound 114] | ++ (activity was measured to be from 1.0 μM to 5.0 μM) | + (activity was measured to be greater than 5.0 μM) | + (activity was measured to be greater than 5.0 μM) | + (activity was measured to be greater than 5.0 μM) |  |  |  |  |
| 25 to 100% | < 25% | < 25% | 25 to 100% | COc1ccccc1C1CCN(C2CC3CCC(C3)C2)CC1 (stereo not drawn) [Compound 169] | +++ (activity was measured to be less than 1.0 μM) | + (activity was measured to be greater than 5.0 μM) | + (activity was measured to be greater than 5.0 μM) | ++ (activity was measured to be from 1.0 μM to 5.0 μM) |  |  |  |  |
| < 25% | < 25% | < 25% | < 25% | COc1ccccc1C1CCN(CC2CC2)CC1 [Compound 346] | + (activity was measured to be greater than 5.0 μM) | + (activity was measured to be greater than 5.0 μM) | + (activity was measured to be greater than 5.0 μM) | + (activity was measured to be greater than 5.0 μM) |  |  |  |  |
| 25 to 100% | < 25% | < 25% | < 25% | Cc1ccc(-c2ccccc2C2CCN([C@H]3C[C@H]4CC[C@H]3C4)CC2)cc1 [Compound 45] | + (activity was measured to be greater than 5.0 μM) | + (activity was measured to be greater than 5.0 μM) | + (activity was measured to be greater than 5.0 μM) | + (activity was measured to be greater than 5.0 μM) |  |  |  |  |
| 25 to 100% | 25 to 100% | < 25% | 25 to 100% | COc1ccc(F)cc1C1CCN(C2CCCCC2)CC1 [Compound 200] | +++ (activity was measured to be less than 1.0 μM) | ++ (activity was measured to be from 1.0 μM to 5.0 μM) | + (activity was measured to be greater than 5.0 μM) | +++ (activity was measured to be less than 1.0 μM) |  |  |  |  |
| 25 to 100% | < 25% | < 25% | < 25% | COc1ccc(-c2ccc(CC#N)cc2)cc1C1CCN(C2C[C@H]3CC[C@H]2C3)CC1 (stereo partly drawn) [Compound 190] | + (activity was measured to be greater than 5.0 μM) | + (activity was measured to be greater than 5.0 μM) | + (activity was measured to be greater than 5.0 μM) | + (activity was measured to be greater than 5.0 μM) |  |  |  |  |
| 25 to 100% | 25 to 100% | < 25% | 25 to 100% | Clc1ccc(-c2ccccc2C2CCN([C@H]3C[C@H]4CC[C@H]3C4)CC2)cc1 [Compound 142] | ++ (activity was measured to be from 1.0 μM to 5.0 μM) | + (activity was measured to be greater than 5.0 μM) | + (activity was measured to be greater than 5.0 μM) | + (activity was measured to be greater than 5.0 μM) |  |  |  |  |
| 25 to 100% | < 25% | < 25% | < 25% | COc1ccc(-c2ccccc2C(N)=O)cc1C1CCN([C@H]2C[C@H]3CC[C@H]2C3)CC1 [Compound 347] | ++ (activity was measured to be from 1.0 μM to 5.0 μM) | + (activity was measured to be greater than 5.0 μM) | + (activity was measured to be greater than 5.0 μM) | + (activity was measured to be greater than 5.0 μM) |  |  |  |  |
| 25 to 100% | < 25% | 25 to 100% | 25 to 100% | COc1ccc(-c2ccc3c(c2)OCO3)cc1C1CCN(C2C[C@@H]3CC[C@@H]2C3)CC1 (stereo partly drawn) [Compound 284] | + (activity was measured to be greater than 5.0 μM) | + (activity was measured to be greater than 5.0 μM) | + (activity was measured to be greater than 5.0 μM) | + (activity was measured to be greater than 5.0 μM) |  |  |  |  |
|  |  |  |  | COc1ccc(-c2ccc(CC#N)cc2)cc1C1CCN(C2CCCCC2)CC1 [Compound 399] | ++ (activity was measured to be from 1.0 μM to 5.0 μM) | + (activity was measured to be greater than 5.0 μM) | + (activity was measured to be greater than 5.0 μM) | + (activity was measured to be greater than 5.0 μM) | 25 to 100% | < 25% | < 25% | < 25% |
|  |  |  |  | OC1(c2cc(Cl)cc(Cl)c2)CCN(C2C[C@H]3CC[C@H]2C3)CC1 (stereo partly drawn) [Compound 375] | + (activity was measured to be greater than 5.0 μM) | + (activity was measured to be greater than 5.0 μM) | + (activity was measured to be greater than 5.0 μM) | + (activity was measured to be greater than 5.0 μM) | 25 to 100% | < 25% | < 25% | < 25% |
| 25 to 100% | < 25% | < 25% | 25 to 100% | O=C(COc1ccccc1C1CCN([C@H]2C[C@H]3CC[C@H]2C3)CC1)c1ccccc1 [Compound 269] | +++ (activity was measured to be less than 1.0 μM) | + (activity was measured to be greater than 5.0 μM) | + (activity was measured to be greater than 5.0 μM) | + (activity was measured to be greater than 5.0 μM) |  |  |  |  |

| SMILES | Emax [1, 5] | Emax [2, 5] | Emax [3, 5] | Emax [4, 5] | M4 Activity [1] | M2 Activity [2] | M3 Activity [3] | M1 Activity [4] | Emax [1, 6] | Emax [2, 6] | Emax [3, 6] | Emax [4, 6] |
| --- | --- | --- | --- | --- | --- | --- | --- | --- | --- | --- | --- | --- |
| COc1ccccc1C1(O)CCN([C@H]2C[C@H]3CC[C@H]2C3)CC1O (stereo partly drawn) [Compound 197] | 25 to 100% | < 25% | < 25% | < 25% | + (activity was measured to be greater than 5.0 μM) | + (activity was measured to be greater than 5.0 μM) | + (activity was measured to be greater than 5.0 μM) | + (activity was measured to be greater than 5.0 μM) |  |  |  |  |
| CCOC(=O)N1CCC(CN2CCC(O)(c3cc(F)ccc3OC)CC2)CC1 [Compound 189] | 25 to 100% | < 25% | < 25% | 25 to 100% | +++ (activity was measured to be less than 1.0 μM) | + (activity was measured to be greater than 5.0 μM) | + (activity was measured to be greater than 5.0 μM) | +++ (activity was measured to be less than 1.0 μM) |  |  |  |  |
| CCOC(=O)N1C2CCC1CC(N1CCC(F)(c3cc(F)ccc3OC)CC1)C2 (stereo not drawn) [Compound 334] | 25 to 100% | < 25% | < 25% | 25 to 100% | +++ (activity was measured to be less than 1.0 μM) | + (activity was measured to be greater than 5.0 μM) | + (activity was measured to be greater than 5.0 μM) | +++ (activity was measured to be less than 1.0 μM) |  |  |  |  |
